Source: patent US20130252930A1 (BIOMARIN PHARMACEUTICAL INC., priority 2010, published 2013)

What was measured:
[1] = Human liver microsome stability assay (Biological Example 8b); conditions: liver microsomes, pH 7.4
Method: The reaction was started with addition of excess NADPH (5 mg/mL, 15 μL in 0.1 M potassium phosphate buffer, 1.0 mM EDTA, pH 7.4), the total volume is 45 μL (compound final concentration was 1 μM). […] 50 μL of the supernatant was transferred from each well into a 96-well sample plate containing 50 μL of ultra-pure water (Millipore) for LC-MS/MS analysis.

[2] = Rat liver microsome stability assay (Biological Example 8a); conditions: liver microsomes, pH 7.4
[3] = molecular target: T1, Human C17,20-lyase (microsomal fraction from human testis) (Homo sapiens, UniProt P05093); assay: CYP17 enzymatic assay (% inhibition at 10 nM), version 2 (Biological Example 6); type: biochemical; conditions: method: tested at 100 nM; human testis microsome, radiometric
T1 construct: using microsomal fraction from human testis (Celsis Cat #S00110) as the enzyme source; tissue Celsis S00110; host or cells: human testis microsomal fraction
T1 sequence (P05093 1-508): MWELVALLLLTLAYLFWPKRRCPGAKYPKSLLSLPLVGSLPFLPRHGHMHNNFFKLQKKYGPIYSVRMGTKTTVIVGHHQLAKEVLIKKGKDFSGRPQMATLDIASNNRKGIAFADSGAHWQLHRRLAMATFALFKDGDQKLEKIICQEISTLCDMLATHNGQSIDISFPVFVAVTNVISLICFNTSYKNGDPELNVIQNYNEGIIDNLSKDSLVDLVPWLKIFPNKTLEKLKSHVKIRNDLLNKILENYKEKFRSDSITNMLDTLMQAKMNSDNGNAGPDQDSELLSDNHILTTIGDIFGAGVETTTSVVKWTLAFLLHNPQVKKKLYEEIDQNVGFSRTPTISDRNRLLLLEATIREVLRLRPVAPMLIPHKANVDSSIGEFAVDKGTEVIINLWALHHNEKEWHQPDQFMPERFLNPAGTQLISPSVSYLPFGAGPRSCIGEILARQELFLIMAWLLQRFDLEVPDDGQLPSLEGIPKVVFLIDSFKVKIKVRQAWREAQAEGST
Method: Human C17,20-lyase enzymatic assays were conducted in 200 μL volume in Eppendorf tubes, using microsomal fraction from human testis (Celsis Cat #S00110) as the enzyme source. Total protein concentration of the microsomal fraction is estimated to be 20 mg/ml. Prior to adding the microsomal fractions, reaction mixtures containing 50 mM NaPO4 buffer (pH 7.4), 1 mM MgCl2, 0.1 mM EDTA, 0.1 mM dithiothreitol, 0.5 mM NADPH, 4 μM 17α-hydroxypregnenolone, 1 μL of [21-^3H]-17α-hydroxypregnenolone (American Radiolabeled Chemicals, ART #1663, Specific activity=50-60 Ci/mmol), and the appropriate testing compounds were incubated for 5 minutes in a 37° C. shaking water bath (150 rpm). Following the 5-minute pre-incubation, 5 μL of human testis microsome was added to each of the reaction mixtures (except for the Negative Controls, which received 5 μL of H2O). After 30-minute incubation at 37° C. in shaking water bath (150 rpm), reactions were stopped by addition of 200 μL of cold chloroform and vigorous shaking for 30 minutes. Tubes were centrifuged at 1,500×g for 15 minutes at 4° C., and the aqueous phase was transferred to fresh Eppendorf tubes. Forty microliters (40 μL) of 8.5% charcoal (Sigma Cat #C6241) suspension was added to each tube, mixed well and incubated at 4° C. for 30 minutes. Tubes were centrifuged at 1,500×g for 15 minutes at 4° C., and 100 μL upper layer from each tube was transferred into each well of a 96-well isoplate (PerkinElmer Cat #6005040). Finally, 100 μL of Optiphase supermix scintillation fluid (PerkinElmer Cat #1200430) was added to each well, mixed by pippeting up and down 3 times. Radioactivity was measured with MicroBeta Trilux Counter using tritium program.
All testing compounds were dissolved and diluted in methanol. Two microliters (2 μL) of the properly diluted test compound was added to each reaction to reach the desired concentration. In Negative control (no enzyme activity) and Activity control (100% enzyme activity), 2 μL of methanol was added. Each data point was tested in duplicate. […]
For compounds of further interest, IC50 value was generated by measuring the inhibition rate at 5 concentrations and using Prism software under “non-linear regression analysis.”

[4] = molecular target: T2, CYP17 (human testicular microsome) (Homo sapiens, UniProt P05093); assay: CYP17 enzymatic assay (IC50) (Biological Example 4); type: biochemical; conditions: human testicular microsome, DHEA by ELISA; read-out: Biological Example No. 4: CYP17 enzymatic assay IC50
T2 construct: using microsomal fraction from human testis (Celsis Cat #S00110) as the enzyme source; tissue Celsis S00110; host or cells: human testis microsomal fraction
T2 sequence (P05093 1-508): T1 sequence (P05093 1-508)

in vitro = conditions: rat, microsomes, pH 7.4
[5] = molecular target: T2, CYP17 (human testicular microsome); assay: CYP17 enzymatic assay (% inhibition at 10 nM), version 1 (Biological Example 5); type: biochemical; conditions: 10 nM compound, DHEA by ELISA, read-out: Biological Example No. 5: CYP17 percent inhibition at 10 nM (version 1)

Compound	half-life at 1 μM [1]	half-life at 1 μM [2]	Biological Example No. 6: CYP17 percent inhibition (version 2) [3]	IC50 [4]	half-life at 1 μM (in vitro)	inhibition at 0.01 µM [5]
C[C@]12CCC(=O)OC[C@@H]1CC[C@@H]1[C@@H]2CC[C@]2(C)C(c3cccnc3)=CC[C@@H]12 [Compound 113, (1S,12S,16S,2R,8R,11R)-2,16-dimethyl-15-(3-pyridyl)-6-oxatetracyclo[9.7.0.0^2,8.0^12,16]octadec-14-en-5-one]	1 to 50 min	10 to 60 min	F (F means the compound had a percent inhibition of greater than or equal to 38%)	< 11 nM		
C[C@]12CCCCC1=CC[C@@H]1[C@@H]2CC[C@]2(C)C(c3cccnc3)=CC[C@@H]12 [Compound 67, 3-((10R,13S)-10,13-dimethyl-2,3,4,7,8,9,10,11,12,13,14,15-dodecahydro-1H-cyclopenta[a]phenanthren-17-yl)pyridine]					1 to 10 min	50 to 80%
C[C@]12CCOC(=O)C[C@@H]1CC[C@@H]1[C@@H]2CC[C@]2(C)C(c3cccnc3)=CC[C@@H]12 [Compound 112, (1S,2S,8S,12S,16S,11R)-2,16-dimethyl-15-(3-pyridyl)-5-oxatetracyclo[9.7.0.0^2,8.0^12,16]octadec-14-en-6-one]	1 to 50 min	10 to 60 min	F (F means the compound had a percent inhibition of greater than or equal to 38%)	< 11 nM		
